Results taken from US7271148B2, “Inhibition of cellular proteases” (The Board of Regents of The University of Texas System, priority 1999, dated 2007).

System: p21^cip1 abundance in mock-infected LU cells
Test: Western blot of p21cip1 abundance in mock-infected, density-arrested LU cells
Type: cell-based, human
Details: E64d 100 μM, mock-infected cells
Experimental: Cell culture and growth arrest. LU cells (3) were propagated in Eagle's minimum essential medium containing 10% fetal bovine serum and penicillin (100 units/ml)/streptomycin (100 μg/ml) in a 5% CO2 in air atmosphere. The cells were density-arrested as described previously in detail (18).
Virus stocks and productive infection. The AD169 strain of HCMV was propagated in LU cells as previously described in detail (6). The infectivity of virus stocks was determined by plaque assay (3). Virus stocks typically had infectivities between 8.0×10^6 and 4.0×10^7 plaque-forming units (PFU)/milliliter. LU cells were infected with HCMV as described in detail by Bresnahan et al. (18). Virus stocks and cell cultures were routinely examined for mycoplasma.
Western blots. Polyclonal or monoclonal antibody for p21^cip1 was obtained from Santa Cruz Biotechnology, Inc. (Santa Cruz, Calif.). Monoclonal antibodies against m-calpain, μ-calpain or calpastatin were generously provided by Dr. R. I. Mellgren (see also 75). Cells were harvested as described previously (18) by dislodging the cells with a cell lifter in phosphate buffered saline. The cells were collected by sedimentation and lysed in NP-40 lysis buffer [50 mM Tris, pH 7.4, 50 mM NaCl, 0.5% NP-40, and 1 mM NaVO3, 50 mM NaF, 1mM phenylmethylsulfonyl fluoride (PMSF), 1 mM dithiothreitol (DTT), 25 μg/ml trypsin inhibitor, 25 μg/ml aprotinin, 1 mM benzamide, and 25 μg/ml pepstatin A added just before use]. Cellular debris was removed by sedimentation and the supernatant fluids were reserved. The protein concentration was determined by the BCA protein assay (Pierce, Rockford, Ill.). Whole cell extracts (40 μg/lane) were fractionated by SDS-polyacrylamide gel electrophoresis (PAGE), and the polypeptides were transferred to nitrocellulose membranes (Bio-Rad Laboratories, Hercules, Calif.) as described previously (18). Antigen-antibody reactions were detected with the enhanced chemiluminescent assay (Amersham Pharmacia Biotech) following the manufacturer's recommendations.
FIGS. 5 and 6. The effect of MG132, an inhibitor of proteasome degradation, on p21^cip1 abundance in HCMV- or mock-infected, density-arrested LU cells. 5. LU cells were density arrested, as described in Materials and Methods. The cell cultures were HCMV (5 PFU/cell)- or mock-infected and then exposed to selected concentrations of MG132 at 24 hr PI. Cell lysates were prepared at 30 hr PI (i.e., 6 hr after […] treatment), and 40 μg of protein from each lysate was resolved by SDS-PAGE. The proteins were transferred to nitrocellulose and probed with antibodies against p21^cip1. Control, cells cultured in the absence of MG132 or its solvent, DMSO. 0, DMSO solvent control, consisting of cells treated with the same concentration of DMSO (0.1%) present in the cultural fluids containing highest concentration of MG132 (10 μM). 6. Represents the abundance of p21^cip1 after MG132 treatment determined by densitometry of the data illustrated in FIG. 5. The data for mock-infected cells (open bars) were calculated relative to the p21^cip1 abundance in untreated mock-infected cells, while the data for HCMV-infected cells (closed bars) were determined relative to the p21^cip1 abundance in untreated HCMV-infected cells.
FIGS. 7 and 8. […]
At the times indicated in the FIG., whole cell lysates were prepared, and 40 μg of protein from each lysate was analyzed by SDS-PAGE. […]

CC(C)C[C@H](NC(=O)[C@H]1O[C@@H]1C(=O)O)C(=O)NCCCCN=C(N)N (relative stereo) [E64d, trans-epoxysuccinyl-L-leucylamido (4-guanidino)-butane]
effect on p21^cip1 levels in mock-infected cells (in words): little, if any, effect
increase in p21^cip1 (3 hr post-treatment (treatment from 48 hr PI)): ~56%
